These results are taken from publication PMC13415951 (Journal of Experimental Botany, 2026).

Data set [1] concerns roots of Brachypodium distachyon seedlings. Nature of the data set: Extracts from B. distachyon roots exposed to mycotoxin, LC-MS/MS. Type of data set: in vivo. The settings on record: 24 h; for D3G synthesis in the presence of CUL: 50 mg l^−1 DON, 10 mg l^−1 CUL. The procedure:
(§1) Seedlings of Apogee and B. distachyon with roots 1–2 cm long were incubated in full-strength MS without sucrose and containing 50 mg l^−1 DON and/or either 50 mg l^−1 CUL (Apogee) or 10 mg l^−1 CUL (B. distachyon). The seedlings were placed into sterile 2 ml tubes containing 500 µl medium such that only the roots were submerged. After 24 h incubation under the same conditions as specified above for the elongation assays, the roots were cut from the seedlings, washed with 10% ethanol, briefly dried with tissue paper, and weighed. The roots were then ground in the Retsch Ball Mill MM 400 for 1 min at 30× s^−1 using two 5 mm steel balls, after which 500 µl methanol was added and the roots were extracted for 2 h at room temperature. The concentrations of DON, D3G, CUL, and CUL-glucosides were determined by LC-MS/MS.
DON, D3G, CUL, and CUL-glucosides were measured on a 6500+ QTrap MS/MS instrument (Sciex) coupled to an Agilent 1290 UHPLC system. A Kinetex C18 column (150×2.1 mm, 2.6 µm particle size; Phenomenex, Torrance, USA) was used for separation at 30 °C. Mobile phases consisted of mixtures of methanol and water (A, 10% MeOH; B, 97% MeOH) and both contained 5 mM ammonium acetate. A flow rate of 250 µl min^–1 and an injection volume of 1 µl were chosen. The gradient started with 0% B for 1.0 min and then increased linearly to 100% B at 8.5 min. The column was rinsed with 100% B for 3 min, before equilibration with the start conditions for another 3 min until the end of the run at 14.5 min. The switching valve of the mass spectrometer directed the eluent into the ion source between 3.0 min and 11.0 min. […] DON and D3G were detected in negative ion mode first, and after 4.5 min the polarity was changed to positive electrospray mode to detect CUL and CUL-glucosides. […] D3G was determined with the [M+CH3COO]^− ion as the precursor (DP −80 V) with the following SRM settings: m/z 517.2 > 427.1 (CE −30 eV) and m/z 517.2 > 59.1 (CE −85 eV). […]

Data set [2] deals with piglets. The arrangement: method as in Rotter et al., 1992. To be noted: ref Rotter et al., 1992; cited from earlier work.
Data set [3] has as its system roots of wheat cultivar Apogee seedlings. The data set is described as follows: Extracts from wheat roots exposed to mycotoxin, LC-MS/MS. Type of data set: in vivo, Triticum aestivum. The settings on record: 24 h. The protocol: as §1
DON, D3G, CUL, and CUL-glucosides were measured on a 6500+ QTrap MS/MS instrument (Sciex) coupled to an Agilent 1290 UHPLC system. A Kinetex C18 column (150×2.1 mm, 2.6 µm particle size; Phenomenex, Torrance, USA) was used for separation at 30 °C. […] DON and D3G were detected in negative ion mode first, and after 4.5 min the polarity was changed to positive electrospray mode to detect CUL and CUL-glucosides. […] D3G was determined with the [M+CH3COO]^− ion as the precursor (DP −80 V) with the following SRM settings: m/z 517.2 > 427.1 (CE −30 eV) and m/z 517.2 > 59.1 (CE −85 eV). […]

Data set [4] has as its system wheat coleoptile tissue. Details: method as in Wang and Miller, 1988. The settings on record: ref Wang and Miller, 1988, cited from earlier work.
The target in data set [5] is T1, OsUGT79 Q202A (Oryza sativa subsp. japonica, UniProt Q7XT97, Q202A).
T1 sequence (Q7XT97 1-466 Q202A): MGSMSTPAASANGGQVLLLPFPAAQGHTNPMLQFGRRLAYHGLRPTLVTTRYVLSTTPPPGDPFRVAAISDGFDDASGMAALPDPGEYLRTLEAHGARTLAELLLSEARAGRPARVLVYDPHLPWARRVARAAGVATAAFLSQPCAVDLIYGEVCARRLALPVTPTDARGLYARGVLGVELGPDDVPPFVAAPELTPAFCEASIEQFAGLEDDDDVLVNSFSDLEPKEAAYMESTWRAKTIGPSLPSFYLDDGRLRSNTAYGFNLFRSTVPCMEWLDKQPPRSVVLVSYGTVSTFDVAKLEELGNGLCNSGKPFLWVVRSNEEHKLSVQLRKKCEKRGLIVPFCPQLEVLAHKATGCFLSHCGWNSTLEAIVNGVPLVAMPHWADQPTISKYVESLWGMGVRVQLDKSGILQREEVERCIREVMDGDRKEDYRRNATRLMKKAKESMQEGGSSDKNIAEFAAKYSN
Nature of the data set: biochemical. It is filed as biochemical.

Data set [6] addresses T2, HvUGT13248 (Hordeum vulgare subsp. vulgare, UniProt M0Y4P1).
T2 sequence (M0Y4P1 1-475): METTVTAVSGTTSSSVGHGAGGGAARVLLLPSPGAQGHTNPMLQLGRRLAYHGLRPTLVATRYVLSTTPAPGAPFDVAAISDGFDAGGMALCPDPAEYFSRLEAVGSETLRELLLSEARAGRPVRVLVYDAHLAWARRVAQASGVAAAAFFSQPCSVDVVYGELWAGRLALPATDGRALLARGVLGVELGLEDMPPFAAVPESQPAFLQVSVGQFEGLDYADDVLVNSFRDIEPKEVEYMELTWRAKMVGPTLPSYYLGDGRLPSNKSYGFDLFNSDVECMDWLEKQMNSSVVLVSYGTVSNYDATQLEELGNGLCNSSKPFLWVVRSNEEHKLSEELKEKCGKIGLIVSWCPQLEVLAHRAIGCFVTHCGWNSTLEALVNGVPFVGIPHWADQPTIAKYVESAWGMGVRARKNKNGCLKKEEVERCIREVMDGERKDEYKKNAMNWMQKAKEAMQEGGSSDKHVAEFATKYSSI
The data set is described as follows: biochemical. The settings on record: read-out: Glucosylation rate of DON, percentage of the control.

Broadly, the Ki is a measure of affinity in units of concentration, obtained from inhibition or displacement. A high value points to weaker binding.

`CC1(C)CCC[C@]2(C)[C@@H]3[C@H]1[C@@H](O)[C@@]2(C)C[C@H]3O` [CUL, culmorin]: the inhibition at 10 µg/mL in data set [1] (Brachypodium distachyon, OE-10R14 roots, 50 mg l^−1 DON with 10 mg l^−1 CUL, read-out: Reduction of D3G synthesis in the presence of CUL) is roughly 58.6%. In addition, in data set [1] (TILLING line 6829-3 (wild-type BdUGT5g03300 allele)), the “D3G synthesis in the presence of CUL” value is “suppressed”. Besides, the “D3G synthesis in the presence of CUL” value in data set [1] (TILLING mutant 6829-7 (BdUGT5g03300 W345*)) was “not further reduced”. Further, the “Effect on growth of piglets” value in data set [2] is “no negative effects”. Moreover, in data set [3] (50 mg l^−1 DON with 50 mg l^−1 CUL), the “Effect of CUL on DON uptake by the roots” value is “did not inhibit DON uptake”. For the same molecule, in data set [3] (50 mg l^−1 DON with 50 mg l^−1 CUL vs DON alone), the “Reduction in the D3G concentration in the roots caused by CUL” value is recorded as roughly 6 fold. For the same molecule, the “Phytotoxicity on wheat by itself” value in data set [4] (10 µM CUL (∼3 mg l^−1)) is listed as “no phytotoxicity”. In data set [4] (1000 µM CUL), the “Phytotoxicity on wheat coleoptile tissue” value is “phytotoxic effect”. Also, in data set [5], the “K iu of CUL (uncompetitive inhibition, DON as variable substrate)” value is on record as 56 µM and the Ki was 16 µM. Also, in data set [6], the remaining activity at 25 µM was found to be 59 ± 6% and the remaining activity at 125 µM was 13%.
